Experimental data from patent US9073821B2, “Hydroxamic acid derivative” (priority 2010, dated 2015).

Biological target: Pseudomonas aeruginosa LpxC enzyme (Pseudomonas aeruginosa (strain ATCC 15692 / DSM 22644 / CIP 104116 / JCM 14847 / LMG 12228 / 1C / PRS 101 / PAO1), UniProt P47205)
Assay: biochemical
Assay type: biochemical
Details: inhibitory activity on Pseudomonas aeruginosa LpxC enzyme, class symbols A/B/C; read-out: Enzyme inhibitory activity

Row | SMILES | IC50
1 | CNC(=O)C(C(=O)NO)N(C)C(=O)c1ccc(CCc2ccc(NCCO)cc2)cc1 (stereo not shown) [Compound 176, N-hydroxy-2-{[4-(2-{4-[(2-hydroxyethyl)amino]phenyl}ethyl)benzoyl](methyl)amino}-N′-methylpropanediamide] | < 10 nM
2 | CN(C(=O)c1ccc(-c2ccccc2)cc1)C(C(=O)NO)C(=O)NCc1cccnc1 (stereo not shown) [Compound 177, 2-[(biphenyl-4-ylcarbonyl)(methyl)amino]-N-hydroxy-N′-(pyridin-3-ylmethyl)propanediamide] | 10 to 100 nM
3 | CN(C(=O)c1ccc(-c2ccccc2)cc1)C(C(=O)NO)C(=O)NCc1ccncc1 (stereo not shown) [Compound 178, 2-[(biphenyl-4-ylcarbonyl)(methyl)amino]-N-hydroxy-N′-(pyridin-4-ylmethyl)propanediamide] | > 100 nM
4 | CNC(=O)C(C(=O)NO)N(C)C(=O)c1ccc(-c2ccc(NCCO)cc2)cc1 (stereo not shown) [Compound 179, N-hydroxy-2-[({4′-[(2-hydroxyethyl)amino]biphenyl-4-yl}carbonyl)(methyl)amino]-N′-methylpropanediamide] | < 10 nM
5 | CNC(=O)C(C(=O)NO)N(C)C(=O)c1ccc(-c2ccc(OCCCCO)cc2)cc1 (stereo not shown) [Compound 180, N-hydroxy-2-[{[4′-(4-hydroxybutoxy)biphenyl-4-yl]carbonyl}(methyl)amino]-N′-methylpropanediamide] | < 10 nM
6 | CNC(=O)C(C(=O)NO)N(C)C(=O)c1ccc(-c2ccc(OCCC(O)CO)cc2)cc1 (stereo not shown) [Compound 181, 2-[{[4′-(3,4-dihydroxybutoxy)biphenyl-4-yl]carbonyl}(methyl)amino]-N-hydroxy-N′-methylpropanediamide] | < 10 nM
7 | CCCc1ccc(-c2ccc(C(=O)N(C)C(C(=O)NC)C(=O)NO)cc2)cc1 (stereo not shown) [Compound 182, N-hydroxy-N′-methyl-2-{methyl[(4′-propylbiphenyl-4-yl)carbonyl]amino}propanediamide] | < 10 nM
8 | CNC(=O)C(C(=O)NO)N(C)C(=O)c1ccc(C#Cc2ccc(NCCO)cc2)cc1 (stereo not shown) [Compound 183, N-hydroxy-2-{[4-({4-[(2-hydroxyethyl)amino]phenyl}ethynyl)benzoyl](methyl)amino}-N′-methylpropanediamide] | < 10 nM
9 | CNC(=O)C(C(=O)NO)N(C)C(=O)c1ccc(-c2ccc3occc3c2)cc1 (stereo not shown) [Compound 184, 2-{[4-(1-benzofuran-5-yl)benzoyl](methyl)amino}-N-hydroxy-N′-methylpropanediamide] | < 10 nM
10 | CNC(=O)C(C(=O)NO)N(C)C(=O)c1ccc(-c2ccc(CCCO)cc2)cc1O (stereo not shown) [Compound 185, N-hydroxy-2-[{[3-hydroxy-4′-(3-hydroxypropyl)biphenyl-4-yl]carbonyl}(methyl)amino]-N′-methylpropanediamide] | > 100 nM
11 | CN(C(=O)c1ccc(-c2ccccc2)cc1)C(C(N)=O)C(=O)NO (stereo not shown) [Compound 186, 2-[(biphenyl-4-ylcarbonyl)(methyl)amino]-N-hydroxypropanediamide] | 10 to 100 nM
12 | CNC(=O)C(C(=O)NO)N(C)C(=O)c1ccc(-c2ccc(C3OCCO3)cc2)cc1 (stereo not shown) [Compound 187, 2-[{[4′-(1,3-dioxolan-2-yl)biphenyl-4-yl]carbonyl}(methyl)amino]-N-hydroxy-N′-methylpropanediamide] | < 10 nM
13 | CNC(=O)C(C(=O)NO)N(C)C(=O)c1ccc(-c2ccc3nonc3c2)cc1 (stereo not shown) [Compound 189, 2-{[4-(2,1,3-benzoxadiazol-5-yl)benzoyl](methyl)amino}-N-hydroxy-N′-methylpropanediamide] | 10 to 100 nM
14 | CNC(=O)C(C(=O)NO)N(C)C(=O)c1ccc(-c2ccccc2)nc1 (stereo not shown) [Compound 190, N-hydroxy-N′-methyl-2-{methyl[(6-phenylpyridin-3-yl)carbonyl]amino}propanediamide] | > 100 nM
15 | CNC(=O)C(C(=O)NO)N(C)C(=O)c1ccc(-c2ccc(OCCOC)cc2)cc1 (stereo not shown) [Compound 191, N-hydroxy-2-[{[4′-(2-methoxyethoxy)biphenyl-4-yl]carbonyl}(methyl)amino]-N′-methylpropanediamide] | < 10 nM
16 | CNC(=O)C(C(=O)NO)N(C)C(=O)c1ccc(-c2cnc3ccccc3c2)cc1 (stereo not shown) [Compound 192, N-hydroxy-N′-methyl-2-{methyl[4-(quinolin-3-yl)benzoyl]amino}propanediamide] | 10 to 100 nM
17 | CNC(=O)C(C(=O)NO)N(CCF)C(=O)c1ccc(-c2ccccc2)cc1 (stereo not shown) [Compound 193, 2-[(biphenyl-4-ylcarbonyl)(2-fluoroethyl)amino]-N-hydroxy-N′-methylpropanediamide] | < 10 nM
18 | CNC(=O)C(C(=O)NO)N(C)C(=O)c1ccc(-c2ccc(CN(C)C)cc2)cc1 (stereo not shown) [Compound 194, 2-[({4′-[(dimethylamino)methyl]biphenyl-4-yl}carbonyl)(methyl)amino]-N-hydroxy-N′-methylpropanediamide] | > 100 nM
19 | CNC(=O)C(C(=O)NO)N(C)C(=O)c1ccc(-c2ccc(/C=N/O)cc2)cc1 (stereo not shown) [Compound 195, N-hydroxy-2-[({4′-[(E)-(hydroxyimino)methyl]biphenyl-4-yl}carbonyl)(methyl)amino]-N′-methylpropanediamide] | < 10 nM

Row | SMILES | IC50
20 | CNC(=O)C(C(=O)NO)N(C)C(=O)c1ccc(-c2ccc3c(cnn3C)c2)cc1 (stereo not shown) [Compound 196, N-hydroxy-N′-methyl-2-{methyl[4-(1-methyl-1H-indazol-5-yl)benzoyl]amino}propanediamide] | < 10 nM
21 | CNC(=O)C(C(=O)NO)N(C)C(=O)c1ccc(-c2ccc3nn(C)cc3c2)cc1 (stereo not shown) [Compound 197, N-hydroxy-N′-methyl-2-{methyl[4-(2-methyl-2H-indazol-5-yl)benzoyl]amino}propanediamide] | 10 to 100 nM
22 | CNC(=O)C(C(=O)NO)N(C(=O)c1ccc(-c2ccc(OCCCN3CCOCC3)cc2)cc1)C1CC1 (stereo not shown) [Compound 198, 2-[cyclopropyl({4′-[3-(morpholin-4-yl)propoxy]biphenyl-4-yl}carbonyl)amino]-N-hydroxy-N′-methylpropanediamide] | < 10 nM
23 | CNC(=O)C(C(=O)NO)N(C)C(=O)c1ccc(-c2ccc3ncsc3c2)cc1 (stereo not shown) [Compound 199, 2-{[4-(1,3-benzothiazol-6-yl)benzoyl](methyl)amino}-N-hydroxy-N′-methylpropanediamide] | < 10 nM
24 | CNC(=O)C(C(=O)NO)N(C)C(=O)c1ccc(-c2ccc3ncccc3c2)cc1 (stereo not shown) [Compound 200, N-hydroxy-N′-methyl-2-{methyl[4-(quinolin-6-yl)benzoyl]amino}propanediamide] | < 10 nM
25 | CNC(=O)C(C(=O)NO)N(C)C(=O)c1ccc(-c2ccc3[nH]ccc3c2)cc1 (stereo not shown) [Compound 201, N-hydroxy-2-{[4-(1H-indol-5-yl)benzoyl](methyl)amino}-N′-methylpropanediamide] | < 10 nM
26 | CNC(=O)C(C(=O)NO)N(C)C(=O)c1ccc(C#Cc2ccc(CN(C)C)cc2)cc1 (stereo not shown) [Compound 202, 2-{[4-({4-[(dimethylamino)methyl]phenyl}ethynyl)benzoyl](methyl)amino}-N-hydroxy-N′-methylpropanediamide] | 10 to 100 nM
27 | CNC(=O)C(C(=O)NO)N(C)C(=O)c1ccc(-c2ccc3[nH]c(C)cc3c2)cc1 (stereo not shown) [Compound 203, N-hydroxy-N′-methyl-2-{methyl[4-(2-methyl-1H-indol-5-yl)benzoyl]amino}propanediamide] | < 10 nM
28 | CNC(=O)C(C(=O)NO)N(C)C(=O)c1ccc(-c2ccc(CNCC(F)F)cc2)cc1 (stereo not shown) [Compound 204, 2-{[(4′-{[(2,2-difluoroethyl)amino]methyl}biphenyl-4-yl)carbonyl](methyl)amino}-N-hydroxy-N′-methylpropanediamide] | 10 to 100 nM
29 | CNC(=O)C(C(=O)NO)N(C)C(=O)c1ccc(-c2ccc(CNC3CC3)cc2)cc1 (stereo not shown) [Compound 205, 2-[({4′-[(cyclopropylamino)methyl]biphenyl-4-yl}carbonyl)(methyl)amino]-N-hydroxy-N′-methylpropanediamide] | 10 to 100 nM
30 | CNC(=O)C(C(=O)NO)N(C)C(=O)c1ccc(C#Cc2ccc(CCN3CCOCC3)cc2)cc1 (stereo not shown) [Compound 206, N-hydroxy-N′-methyl-2-{methyl[4-({4-[2-(morpholin-4-yl)ethyl]phenyl}ethynyl)benzoyl]amino}propanediamide] | < 10 nM
31 | CNC(=O)C(C(=O)NO)N(C)C(=O)c1ccc(C#Cc2ccc(CCN3CCCOCC3)cc2)cc1 (stereo not shown) [Compound 207, N-hydroxy-N′-methyl-2-{methyl[4-({4-[2-(1,4-oxazepan-4-yl)ethyl]phenyl}ethynyl)benzoyl]amino}propanediamide] | < 10 nM
32 | CNC(=O)C(C(=O)NO)N(C)C(=O)c1ccc(-c2ccc(OCCCN3CCOCC3)c(F)c2)cc1 (stereo not shown) [Compound 208, 2-[({3′-fluoro-4′-[3-(morpholin-4-yl)propoxy]biphenyl-4-yl}carbonyl)(methyl)amino]-N-hydroxy-N′-methylpropanediamide] | < 10 nM
33 | CNC(=O)C(C(=O)NO)N(C)C(=O)c1ccc(CCc2ccc(CCN3CCOCC3)cc2)cc1 (stereo not shown) [Compound 209, N-hydroxy-N′-methyl-2-{methyl[4-(2-{4-[2-(morpholin-4-yl)ethyl]phenyl}ethyl)benzoyl]amino}propanediamide] | < 10 nM
34 | CNC(=O)C(C(=O)NO)N(C)C(=O)c1ccc(CCc2ccc(CCN3CCCOCC3)cc2)cc1 (stereo not shown) [Compound 210, N-hydroxy-N′-methyl-2-{methyl[4-(2-{4-[2-(1,4-oxazepan-4-yl)ethyl]phenyl}ethyl)benzoyl]amino}propanediamide] | 10 to 100 nM
35 | CCCOc1ccc(-c2ccc(C(=O)N(C)C(C(=O)NC)C(=O)NO)cc2)cc1 (stereo not shown) [Compound 212, N-hydroxy-N′-methyl-2-{methyl[(4′-propoxybiphenyl-4-yl)carbonyl]amino}propanediamide] | < 10 nM
36 | CNC(=O)C(C(=O)NO)N(C)C(=O)c1ccc(-c2ccc(OC(C)C)cc2)cc1 (stereo not shown) [Compound 213, N-hydroxy-N′-methyl-2-(methyl {[4′-(propan-2-yloxy)biphenyl-4-yl]carbonyl}amino)propanediamide] | < 10 nM
37 | CNC(=O)C(C(=O)NO)N(C)C(=O)c1ccc(-c2ccc(OCC(C)C)cc2)cc1 (stereo not shown) [Compound 214, N-hydroxy-N′-methyl-2-(methyl {[4′-(2-methylpropoxy)biphenyl-4-yl]carbonyl}amino)propanediamide] | < 10 nM
